The values that follow come from patent US12295949B2, “Treatment of the gastrointestinal tract with dimeric naphthalimide compounds” (Alumend, LLC, priority 2022, dated 2025).

Data set [1] concerns ex-vivo healthy swine arterial tissue. Nature of the data set: Fluorescence microscopy of ex-vivo arterial tissue cross-sections after delivery of 10-8-10 Dimer. The format is in vitro ADME. The note with it: 2 mg/mL for five minutes, 60x fluorescence microscopy. How it is done:
FIGS. 32A and B are fluorescence microscopy images of ex-vivo healthy swine arterial tissue cross-section delivered with 2 mg/mL 10-8-10 Dimer for five minutes; wherein (A) is a fluorescence image at 60× magnification and (B) is at 60× magnification with fluorescence and greyscale overlay. FIGS. 32A and B are 60× fluorescence microscopy images of ex-vivo healthy swine arterial tissue cross-sections treated with 2 mg/mL 10-8-10 Dimer for five minutes; wherein (A) is a fluorescence image and (B) is a fluorescence and greyscale overlay.

Data set [2] relates to ex-vivo healthy swine esophageal tissue. Nature of the data set: Fluorescence microscopy of ex-vivo esophageal tissue cross-section after delivery of 10-8-10 Dimer. The class given is in vitro ADME. Here is the method:
FIGS. 34A and B are fluorescence microscopy images of ex-vivo healthy swine esophageal tissue cross-section delivered with 4 mg/mL 10-8-10 Dimer for five minutes; wherein (A) is a fluorescence image at 4× magnification, and (B) is at 4× magnification with the fluorescence and greyscale overlay). FIGS. 34A and B are 4× fluorescence microscopy images of ex-vivo healthy swine esophageal tissue cross-section treated with 4 mg/mL 10-8-10 Dimer for five minutes; wherein (A) is a fluorescence image, and (B) is the fluorescence and greyscale overlay. As shown therein, The penetration of 10-8-10 Dimer into ex-vivo esophageal tissue is also vastly different from arterial tissue penetration. […] Treatment with 2 mg/ml of 10-8-10 Dimer was ineffective. In contrast to the treatment of arterial tissue, the 10-8-10 Dimer was efficacious at a concentration 100% greater.

Data set [3] concerns esophageal strictures generated by endoscopic mucosal resection (EMR). Nature of the data set: Esophageal stricture (endoscopic mucosal resection) formation and treatment with compound I(a) plus PTA with light in minipigs. The class given is in vivo, Yucatan minipigs. From the text:
Five healthy Yucatan minipigs (20-28 kg) were enrolled in the study. For the EMR procedure, each animal was monitored and maintained under anesthesia throughout the duration of the procedure. Each animal was placed in a supine position and elevated to a 5-12 degrees reverse Trendelenburg position, to aid in keeping gastric fluids from coming into the EMR procedural area. A water base lubricant (Astroglide) was used to aid at every insertion of the endoscope.
The upper GI was intubated and surveyed for abnormalities and gastric fluid content via a GIF-XQ140 endoscope. Of the five animals, three animals underwent lavage to remove excess fluid and debris from the esophagus and gastric lumen by washing with saline and suctioning out fluid/debris. A fluoroscopic esophagogram was taken of the target area with the endoscope in place (FIG. 1). The distal tip was measured with a calibrated digital caliper and the measurement was used to calibrate the fluoroscopic measurement tool. […] All representative fluoroscopic and endoscopic imagery are from animal 19P39 unless otherwise stated.
The scope tip was positioned within ±3 cm of the target site. Suction was applied through the gastroscope to visualize the esophageal mucosa at the distal attachment (DA) and to visualize the injection range to capture approximately three-fourths of the esophageal lumen at the target site. The needle from the disposable EMR kit was inserted through the endoscope biopsy channel and into the endoscope field of view (FIG. 2A). The injector slider was pushed until it clicked into position to extend the needle from the sheath. A 10 mL syringe with saline was connected to the injector port. Suction was applied and the injector needle advanced to pierce the target mucosa and to inject a bolus of saline (FIG. 2B). The target area was injected with 0.5 mL to 2.0 mL of saline multiple times to reach a coverage of approximately three-fourths circumference of the target area. Following injections suction was released, and the needle withdrawn from the biopsy channel for insertion of the snare.
The snare was used to remove the blistered mucosal tissue from the treated area. The snare was retracted and inserted into the biopsy channel and advanced into the field of view with the distal sheath. The snare was connected to the electrosurgical unit (Olympus PSD-20). The electrosurgical unit has two settings, one setting is CUT, which is used to cut the tissue and the other setting is COAG, which is used to cauterize the tissue. The snare loop tip was slowly extended approximately 5-10 mm beyond the DA, and CUT was activated marking the base of the tissue bolus by cauterizing the mucosa (FIG. 3A). Suction was used to draw the tissue bolus partially into the DA, and CUT was activated to separate the target mucosa from the submucosa/muscularis. The snare loop was also used as a lasso to remove the partially resected mucosa by cinching the snare closed around the resection (FIG. 3B) and activating the CUT pedal and COAG pedal as needed. The tissue that was not easily removed with the snare was removed with a coagrasper (FIG. 3C). The natural contraction movements of the esophagus posed some difficulty with maintaining a perfect depth to only exposing the submucosal tissue and to maintaining a consistent resection length throughout the resected area. For some animals there were portions of muscularis tissue exposed and some spiraling to the resected area due to the esophageal contractions (FIG. 4). Following the EMR a post procedural fluoroscopic esophagogram (FIG. 5) was taken and the animal recovered from anesthesia.
The EMR in the target area span approximately 270 degrees circumference and less than 2 cm wide.
On Day 21, post stricture induction, animals underwent anesthesia for evaluation of stricture formation and for stricture treatment. No lavage was needed to the esophagus or gastric lumen to complete the treatment on any of the animals. […]

The subject of data set [4] is esophageal tissue in a healthy swine in vivo esophagus. Nature of the data set: Crosslink healthy in vivo esophagus at two power levels (delivery, soak, balloon dilatation, light activation). Details: species or system Yorkshire Cross swine. From the text: More specifically, this study evaluated the logistics for esophageal placement of compound I(a) with the use of contrast media, the crosslinking effects of compound I(a), and acute retention of dilation in an in vivo swine model.
An Olympus GIF-140 Endoscope was used in this study. Fluoroscopy was utilized throughout the procedures for confirmation of equipment placement, sample delivery, and removal.
A 60-65 kg Yorkshire Cross (18P118) was used to establish the logistical techniques of the procedure. The animal was fasted for 24 hours prior to the procedure commencing. Post anesthesia swine 18P118 was positioned supinely (on its back) with the surgical table flat. A lavage was performed to flush any remaining contents from the esophagus and stomach. The endoscope was lubricated with a dime size amount of water based Astroglide and inserted into the mouth, passed by the epiglottis, around the pharyngeal diverticulum, through the esophagus and into the stomach. At insertion, the esophagus was partially open, (<5 mm diameter) circular and smooth. The esophagus formed around the catheter and the endoscope inserted instruments, ranging from 4 mm to 12.74 mm in diameter. The endoscope incremental measurements were used to determine the endoscope placement from the front incisor (zero reference point) to the lower esophageal sphincter (71 cm) with the designated working area being between 30 and 60 cm. The endoscope was maintained in the esophagus for the entire procedure.
Using the endoscope, the Edwards Fogarty occlusion catheter and the Vista Brite tip guide catheter were guided down the esophagus and positioned at the 45 cm mark. Positioning them simultaneously, then holding during inflation prevented slippage of the catheters during balloon inflation. The mucosa is loosely attached to the muscularis; the movement of any device in contact with the mucosa influenced the positioning of all inserted devices. […]
Once the volume required to fill the treatment zone was determined the contrast medium was removed. […]

Setting [5] is: 4 mg/mL for five minutes, 4x fluorescence microscopy.
The mark [6] stands for this setting: Study Day 21, fluoroscopic, PTA + compound I(a) w/light, one row per animal.
The mark [7] stands for this setting: Study Day 49 necropsy, cross-section of esophagus, compound I(a) + PTA w/ light, one row per animal.

“And” between values parts separate entries of the source, which are not always exact repeats. Identical values can stand only once. “Also recorded” adds a separate entry of the source.

Take `NCCOCCOCCNc1ccc2c3c(cccc13)C(=O)N(CCOCCOCCN1C(=O)c3cccc4c(NCCOCCOCCN)ccc(c34)C1=O)C2=O` [compound I(a)]: in data set [1], the “penetration into arterial tissue (fluorescence)” value is “penetrated through the arterial intima and into the media”. Also, the “treatment of esophageal tissue at 2 mg/ml” value in data set [2] (2 mg/ml) was “ineffective”. Besides, in data set [2] (setting [5]), the “fluorescence in the submucosa or muscularis” value is recorded as “no significant fluorescence” and the “location of 10-8-10 Dimer fluorescence in esophageal tissue” value was “preponderance of 10-8-10 Dimer fluorescence is in the epithelium”. Besides, the “treatment of esophageal tissue at higher concentration” value in data set [2] (concentration 100% greater than for arterial tissue (4 mg/mL vs 2 mg/mL)) was “efficacious”. In addition, in data set [3] (10 mg/ml in PBS, 10 minutes soak, Day 21), the “penetration at stricture site (yellow coloration of the esophagus)” value is listed as “Yellow coloration of the esophagus was observed indicating penetration”. The “abnormalities of the entire esophagus via endoscope imaging” value in data set [3] (Day 21 post treatment, compound I(a) plus PTA balloon with light animals, other than the stricture area) is “no abnormalities were seen”. In addition, in data set [3] (Day 49 microscopic evaluation, compound I(a) plus PTA balloon with light), the “re-epithelialization (pathology report)” value was “complete”. Also, the “Diameter of Stricture (mm) 0 min. post TX” value in data set [3] (Study Day 21, fluoroscopic, PTA + compound I(a) (10 mg/ml in PBS, 10 min soak) w/light 74 mW/cm2, one row per animal) was 15.88 mm and 13.0 mm and 12.4 mm. In addition, in data set [3] (setting [6]), the “Diameter of Stricture (mm) 30 min. post TX” value is 17.13 mm and 7.5 mm and 14.8 mm; the “Diameter of Stricture (mm) 60 min. post TX” value is 13.8 mm and 8.5 mm and 10.9 mm. Moreover, the “Length of Stricture (mm) Endoscopic scan post TX” value in data set [3] (Study Day 21, post treatment, PTA + compound I(a) w/light, one row per animal) was 30 mm (2×) and 17 mm. In addition, in data set [3] (Study Day 49 (four weeks post treatment), compound I(a) + PTA w/light, one row per animal), the “Length of Stricture (mm) Fluoroscopic” value is 12.6 mm (2×) and 12.8 mm. Also, in data set [3] (setting [7]), the “Stricture Length” value is 3-11 millimeters and 5 millimeters and 25 millimeters; the “Stricture Width” value is 12 millimeters and 10 millimeters and 7 millimeters. The “Diameter of Stricture Post TX” value in data set [3] (Table 3, Study Day 49 (four weeks post treatment), fluoroscopic, compound I(a) + PTA w/light, one row per animal) is 4.9 mm and 6.0 mm and 7.4 mm. In addition, the “Diameter of Stricture Post TX” value in data set [3] (Table 10, post treatment, 29 days apart, compound I(a) + PTA w/light, one row per animal, in mm) was 6.0 and 7.4 and 4.9. Further, in data set [3] (all compound I(a) plus PTA balloon with light treated animals, Table 10), the “percent gain at the stricture site post-treatment” value is reported as “increase in percent gain”. Further, the “% Stricture Diameter Change Before and Post Treatment” value in data set [3] (before and post treatment 29 days apart, compound I(a) + PTA w/light, one row per animal) is 22.4% and 94.7% and 169%. The “restoring the esophagus to a healthier diameter and movement” value in data set [3] (compound I(a) plus PTA balloon with light, in comparison with PTA balloon only treatment (19P38)) is listed as “better success”. For the same compound, in data set [3] (four weeks after treatment with compound I(a) crosslinking), the retention of dilation result is given as “demonstrated retention of dilation”. Further, the “crosslinking of the esophageal tissue (esophagus open at treated sites)” value in data set [4] (10 mg/mL, 10 min soak, balloon dilatation, laser 74 mW/cm2 (site A) or 32 mW/cm2 (sites B, C) for 2 minutes) was “indications of potential crosslinking were seen at multiple sites; also recorded: opening at sites A, B and C indicate a crosslinking of the esophageal tissue”. Also, in data set [4] (8 mL of compound I(a) 10 mg/mL in PBS, 10 minutes soak, treatment sites A, B, C, endoscopic observation), the “penetration of esophageal tissue (yellow coloration of the tissue)” value is reported as “penetration was observed; also recorded: yellow coloration of the tissue is indicative of compound I(a) penetration; also recorded: yellow coloration of the esophagus confirmed delivery”. Moreover, the “irritation of the esophagus on endoscopy or necropsy examination” value in data set [4] (post treatment, entire length of the esophagus, slight irritation at site C attributed to TAPAS catheter) is on record as “No significant irritation”.
